Assay results reported in patent US4189604A, “Bestatin” (Zaidan Hojin Biseibutsu Kagaku Kenkyu Kai, priority 1975, dated 1980).
In brackets after ≈: the same amount, converted by molar mass. Read-outs that look alike come from different tables or passages of the source.

Assays:
[1] = system: plaque forming cells in the spleen; experiment: Effect on humoral antibody formation to Sheep Red Blood Cell (SRBC) in mice (JERNE's hemolytic plaque technique); format: in vivo, Mice (dd/y female); conditions: for Antibody Forming Cells Number / Antibody Forming Cells Treated Group / Non-treated Group: intraperitoneal, four days
Description: The compound of Example 28 was also tested for its humoral antibody formation to find its efficacy as an immunizing cancer inhibitor. […] For the humoral antibody formation of Bestatin per se see J. Antibiotics, 29(8), 857-859 (August, 1976).
The effect of (2RS,3RS)-3-amino-2-hydroxy-4-hydroxyphenylbutanoyl-(S)-leucine on humoral antibody formation to Sheep Red Blood Cell (SRBC) in mice was studied as follows.
Mice (dd/y female) were immunized by intravenous injection of 10^8 SRBC. Intraperitoneal injection of (2RS,3RS)-3-amino-2-hydroxy-4-hydroxyphenylbutanoyl-(S)-leucine was made soon afterwards.
Four days thereafter the number of plaque forming cells in the spleen were enumerated by JERNE's hemolytic plaque technique [Jerne, N. K.; A. A. Nordin & C. Henry: "The Agar Plaque Technique for Recognizing Antibody-producing Cells" in cell-bound antibodies (Wistar Institute Press, Philadelphia, 1963), pp. 109-122].

[2] = target: T1, aminopeptidase B (Rattus norvegicus, UniProt O09175); experiment: Inhibitory activity against aminopeptidase B; format: biochemical; conditions: for IC50: read-out: ID50 (the source's name) (converted); for inhibitory effect relative to Bestatin: compared with Bestatin
T1 construct: aminopeptidase B solution which is prepared by Sephadex 100 chromatography as described by Hopusu et al; from tissue
T1 sequence (O09175 1-650): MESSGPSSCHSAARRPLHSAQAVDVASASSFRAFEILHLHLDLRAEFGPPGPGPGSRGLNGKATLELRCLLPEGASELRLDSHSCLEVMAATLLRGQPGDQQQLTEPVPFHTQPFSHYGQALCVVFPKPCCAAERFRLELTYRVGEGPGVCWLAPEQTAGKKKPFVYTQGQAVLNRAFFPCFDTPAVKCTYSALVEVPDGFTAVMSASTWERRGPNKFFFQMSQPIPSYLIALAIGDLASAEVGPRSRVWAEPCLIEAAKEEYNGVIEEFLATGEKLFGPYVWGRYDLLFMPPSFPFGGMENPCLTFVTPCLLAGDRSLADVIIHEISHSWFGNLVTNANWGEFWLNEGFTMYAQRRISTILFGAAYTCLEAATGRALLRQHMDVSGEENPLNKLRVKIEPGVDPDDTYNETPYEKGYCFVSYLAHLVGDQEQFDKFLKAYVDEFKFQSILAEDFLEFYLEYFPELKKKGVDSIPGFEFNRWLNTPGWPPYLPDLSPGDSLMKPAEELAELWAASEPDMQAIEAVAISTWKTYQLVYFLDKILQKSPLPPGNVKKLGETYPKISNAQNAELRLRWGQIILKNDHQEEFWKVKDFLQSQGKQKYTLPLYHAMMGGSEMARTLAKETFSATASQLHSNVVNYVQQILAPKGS
Description: (A) Inhibitory activity against aminopeptidase B Testing method: The method described by […] in Archives of Biochemistry and Biophysics 114, 557, (1966) was modfied. To the mixture of 0.3 ml. of 1 mM arginine β-naphthylamide and 1.0 Ml. of 0.1 M Tris hydrochloride buffer (pH 7.0), 0.7 Ml. of distilled water with or without a test material is added and warmed at 37° C. for 3 minutes. The reaction is started by addition of 0.2 ml. of aminopeptidase B solution which is prepared by Sephadex 100 chromatography as described by Hopusu et al. […] Fifteen minutes at room temperature thereafter, absorbance (a) at 530 nm is measured by spectrophotometer. […] The inhibition percent is calculated as follows: (b-a)/b×100.

[3] = Biological Testing table after Example 29
[4] = pH 7.0, 37° C., 30 minutes, Table 1

With `CC(C)C[C@H](NC(=O)C(O)C(N)Cc1ccc(O)cc1)C(=O)O` (stereo partly drawn) [Example 28, (2RS,3RS)-3-amino-2-hydroxy-4-p-hydroxyphenylbutanoyl-(S)-leucine] the “number of antibody forming cells relative to non-treated mice” value ([1]; 1 mcg.) was 1.41 times, the “number of antibody forming cells relative to non-treated mice” value ([1]; 10 mcg.) was 1.66 times and the “Antibody Forming Cells Number” value ([1]; dose 1 mg.) was 207,400±8,025. For the same molecule, the “Antibody Forming Cells Treated Group / Non-treated Group” value ([1]; dose 1 mg.) was 1.66, the “Antibody Forming Cells Number” value ([1]; dose 0.1 mcg.) was 141,000±5,700 and the “Antibody Forming Cells Treated Group / Non-treated Group” value ([1]; dose 0.1 mcg.) was 1.13. The “Antibody Forming Cells Number” value ([1]; dose 1 mcg.) was 175,800±8,200, the “Antibody Forming Cells Treated Group / Non-treated Group” value ([1]; dose 1 mcg.) was 1.41 and the “Antibody Forming Cells Number” value ([1]; dose 10 mcg.) was 208,000±7,180. For the same molecule, the “Antibody Forming Cells Treated Group / Non-treated Group” value ([1]; dose 10 mcg.) was 1.66, the “Antibody Forming Cells Number” value ([1]; dose 100 mcg.) was 261,000±11,700 and the “Antibody Forming Cells Treated Group / Non-treated Group” value ([1]; dose 100 mcg.) was 2.09. The “number of humoral antibody (forming) cells” value ([1]; in words) was “increasing the number of humoral antibody cells to a considerable degree”, the “number of nonspecific antibody forming cells” value ([1]; in words) was “did not increase the weight of the spleen or the number of nonspecific antibody forming cells” and the “weight of the spleen” value ([1]; in words) was “did not increase the weight of the spleen”. For the same molecule, the “number of humoral antibody (forming) cells” value ([1]; in words, listed as (2RS,3RS)-3-amino-2-hydroxy-4-hydroxybutanoyl-(S)-leucine) was “excellent effect of increasing the number of antibody forming cells”, the IC50 [2, 3] was 308 nM and the “inhibitory effect relative to Bestatin” value [2] was “substantially the same inhibitory effects as Bestatin”.

In the case of `CC(C)C[C@H](NC(=O)[C@@H](O)[C@H](N)Cc1ccc(O)cc1)C(=O)O` [Example 29, (2S,3R)-3-amino-2-hydroxy-4-p-hydroxyphenylbutanoyl-(S)-leucine], the IC50 [2, 3] is reported as 21.6 nM and the “inhibitory effect relative to Bestatin” value [2] is reported as “one-fourteenth of Bestatin”.

`CC(C)C[C@H](NC(=O)[C@@H](O)[C@@H](N)Cc1ccccc1)C(=O)O` [No. 2, (2S,3S)-3-amino-2-hydroxy-4-phenylbutanoyl-(S)-leucine] was tested, and the ID50 [2, 4] was 1.25 µg/mL (≈ 4.05 µM).

`CC(C)C[C@@H](NC(=O)[C@@H](O)[C@H](N)Cc1ccccc1)C(=O)O` [No. 3, (2S,3R)-3-amino-2-hydroxy-4-phenylbutanoyl-(R)-leucine] gave an ID50 [2, 4] of 0.56 µg/mL (≈ 1.82 µM).

Work on `CC(C)C[C@@H](NC(=O)[C@@H](O)[C@@H](N)Cc1ccccc1)C(=O)O` [No. 4, (2S,3S)-3-amino-2-hydroxy-4-phenylbutanoyl-(R)-leucine] yielded an IC50 [2, 4] of 130 nM.

Work on `N[C@H](Cc1ccccc1)[C@H](O)C(=O)NCC(=O)O` [No. 5, (2S,3R)-3-amino-2-hydroxy-4-phenylbutanoyl-glycine] yielded an ID50 [2, 4] of 21.5 µg/mL (≈ 85.2 µM).

Molecule `CC[C@H](C)[C@H](NC(=O)[C@@H](O)[C@H](N)Cc1ccccc1)C(=O)O` [No. 7, (2S,3R)-3-amino-2-hydroxy-4-phenylbutanoyl-(S)-isoleucine] has an IC50 [2, 4] of 162 nM.

`CSCC[C@H](NC(=O)[C@@H](O)[C@H](N)Cc1ccccc1)C(=O)O` [No. 8, (2S,3R)-3-amino-2-hydroxy-4-phenylbutanoyl-(S)-methionine] gave an ID50 [2, 4] of 0.22 µg/mL (≈ 0.674 µM).

Molecule `NC(=O)CC[C@H](NC(=O)[C@@H](O)[C@H](N)Cc1ccccc1)C(=O)O` [No. 9, (2S,3R)-3-amino-2-hydroxy-4-phenylbutanoyl-(S)-glutamine] has an ID50 [2, 4] of 1.2 µg/mL (≈ 3.71 µM).

`CCCC[C@H](NC(=O)[C@@H](O)[C@H](N)Cc1ccccc1)C(=O)O` [No. 11, (2S,3R)-3-amino-2-hydroxy-4-phenylbutanoyl-(S)-norleucine] gave an ID50 [2, 4] of 0.13 µg/mL (≈ 0.422 µM).

For `N[C@H](Cc1ccccc1)[C@H](O)C(=O)N[C@@H](Cc1ccccc1)C(=O)O` [No. 12, (2S,3R)-3-amino-2-hydroxy-4-phenylbutanoyl-(S)-phenylalanine], the ID50 [2, 4] was 4.2 µg/mL (≈ 12.3 µM).

Work on `N[C@H](Cc1ccccc1)[C@H](O)C(=O)N[C@@H](CO)C(=O)O` [No. 13, (2S,3R)-3-amino-2-hydroxy-4-phenylbutanoyl-(S)-serine] yielded an IC50 [2, 4] of 2550 nM.

Work on `N[C@H](Cc1ccccc1)[C@H](O)C(=O)N[C@@H](CCC(=O)O)C(=O)O` [No. 14, (2S,3R)-3-amino-2-hydroxy-4-phenylbutanoyl-(S)-glutamic acid] yielded an ID50 [2, 4] of 25 µg/mL (≈ 77.1 µM).

For `CCCCCCC(NC(=O)[C@@H](O)[C@H](N)Cc1ccccc1)C(=O)O` (stereo partly drawn) [No. 15, (2S,3R)-3-amino-2-hydroxy-4-phenylbutanoyl-(RS)-2-aminooctanoic acid], the ID50 [2, 4] was 3.1 µg/mL (≈ 9.21 µM).

Molecule `CC(C)C[C@H](NC(=O)C(O)[C@@H](C)N)C(=O)O` (some centres unmarked) [No. 16] has an ID50 [2, 4] of 16 µg/mL (≈ 68.9 µM).

Work on `CC(C)C[C@H](NC(=O)C(O)[C@H](N)CC(C)C)C(=O)O` (stereo partly drawn) [No. 17, (2RS,3R)-30 amino-2-hydroxy-5-methylhexanoyl-(S)-leucine] yielded an ID50 [2, 4] of 12 µg/mL (≈ 43.7 µM).

`CC(C)C[C@H](NC(=O)C(O)[C@H](N)c1ccccc1)C(=O)O` (stereo partly drawn) [No. 18, (2RS,3R)-3-amino-2-hydroxy-3-phenylpropionyl-(S)-leucine] showed an ID50 [2, 4] of 56 µg/mL (≈ 190 µM).

`CC(C)C[C@H](NC(=O)C(O)C(N)Cc1ccc(Cl)cc1)C(=O)O` (stereo partly drawn) [No. 19, (2RS,3RS)-3-amino-2-hydroxy-4-p-chlorophenylbutanoyl-(S)-leucine] was tested, and the “number of antibody forming cells compared with non-treated group” value ([1]; 10 mcg., in words) was “nearly equal to that of non-treated group”, the “Antibody Forming Cells Number” value ([1]; dose 1 mg.) was 208,750±8,000 and the “Antibody Forming Cells Treated Group / Non-treated Group” value ([1]; dose 1 mg.) was 1.67. The “Antibody Forming Cells Number” value ([1]; dose 10 mcg.) was 133,750±5,600 and the “Antibody Forming Cells Treated Group / Non-treated Group” value ([1]; dose 10 mcg.) was 1.07.

In the case of `Cc1ccc(CC(N)C(O)C(=O)N[C@@H](CC(C)C)C(=O)O)cc1` (stereo partly drawn) [No. 21, (2RS,3RS)-3-amino-2-hydroxy-4-p-methylphenylbutanoyl-(S)-leucine], the ID50 [2, 4] is reported as 0.01 µg/mL (≈ 0.031 µM).

With `CC(C)C[C@H](NC(=O)[C@@H](O)[C@H](N)Cc1ccc([N+](=O)[O-])cc1)C(=O)O` [No. 22, (2S,3R)-3-amino-2-hydroxy-4-p-nitrophenylbutanoyl-(S)-leucine] the ID50 [2, 4] was 0.01 µg/mL (≈ 0.0283 µM).

In the case of `CC(C)C[C@H](NC(=O)[C@@H](O)[C@H](N)Cc1ccc(N)cc1)C(=O)O` [No. 23, (2S,3R)-3-amino-2-hydroxy-4-p-aminophenylbutanoyl-(S)-leucine], the ID50 [2, 4] is reported as 0.10 µg/mL (≈ 0.309 µM).

Molecule `CC(C)C[C@H](NC(=O)[C@@H](O)[C@H](N)CC1CCCCC1)C(=O)O` [No. 24, (2S,3R)-3-amino-2-hydroxy-4-cyclohexylbutanoyl-(S)-leucine] has an IC50 [2, 4] of 3340 nM.
